Measurements reported in US10278931B2, “Composition for treatment of inflammatory bowel disease and atopic dermatitis” (INNOPHARMASCREEN INC., priority 2015, dated 2019).

What was measured:
[1] = system: active caspase-1; experiment: Western blotting of active caspase-1 in HMC-1 cells; assay type: cell-based, human
Method: (6) Western blotting analysis: Cells were seeded in a 6-well plate and then treated with a drug, and after a certain period of time, the cells were harvested. After harvest, the cells were washed with PBS and then lysed. 50 μg of tissue protein and cell extract protein were subjected to electrophoresis on 12% gel, transferred to nitrocellulose paper, and then blocked with 6% bovine serum albumin for 2 hours. Each protein was reacted with a primary antibody overnight and washed with PBS-tween. Thereafter, the resulting protein was reacted with a secondary antibody for 2 hours, washed, and then detected using an ECL solution kit.

[2] = system: DSS-induced animal model; experiment: DSS-induced inflammatory bowel disease (enteritis) model; assay type: in vivo, C57BL/6 mice
Method: Six-week-old female SPF (Specific pathogen-free) C57BL/6 mice were purchased from DuPont Biotech. The mice were allowed to freely ingest a feed and water after an acclimation period of 1 week in an animal room of Hoseo University Safety Evaluation Center maintained at temperature of 21±3° C., humidity of 50±20%, and light/darkness cycle of 12 h/12 h. All procedures in the present animal experiment were conducted after approved by the Animal Experimental Ethics Committee of Hoseo University (HTRC-15-19, and HTRC-16-22(2)).
Dextran sodium sulfate (cat no 160110 by Mpbio. corn) as a colitis inducer was diluted to 3% concentration in drinking water and orally administered to mice to induce enteritis. The mice were divided into 6 groups and DW was administered to the animals of a control, and 1.0 mg/kg and 10 mg/kg of the test material were orally administered to the animals of the experimental groups once a day for […]. Sulfasalazine (100 mg/kg) dissolved in crude olive oil was orally administered once a day to the animals of a positive control. In acute cases, disease progression levels were examined after 5 days of administration. In chronic cases, disease progression levels were examined 15 days and 30 days after the 5 days of administration (reference: Toxicology Reports 2 (2015) 10391045-Caryophyllene attenuates dextran sulfate sodium-induced colitis in mice via modulation of gene expression associated mainly with colon inflammation).
Body weights were measured once for 5 days or more during the test period. The measured weights were quantified as 0 point if there was no difference compared with the normal control, 1 point for weight loss rate of 15%, 2 points for 510%, 3 points for 1015%, and 4 points for >15%. Feces observation was performed to examine the incidence of diarrhea, and the results thereof were quantified as scores (0, normal stool; 1, mildly soft stool; 2, very soft stool; 3, very soft stool (no regular shape); 4, watery stool).
Rectal tissues and blood were collected from 5 individuals for each of the autopsy times. Yuhan ketamine 50® (Yuhan Corporation, Korean) and Rompun (Bayer, USA) were mixed in a ratio of 3:1, and then used to anesthetize animals via muscular injection. Each anesthetized animal was subjected to laparotomy to collect blood from the abdominal artery, and after blood collection, the abdominal artery was cut and subjected to venesection and death to collect rectal tissue. The length and weight of the collected tissue were measured to calculate weight per 1 cm of the tissue. Some of the collected tissues were used in biopsy, and some thereof were frozen in liquid nitrogen and stored at −70° C. before analysis. […]

Cl.N=C(N)NC(=N)Nc1ccc(Cl)cc1 [IPS-07001]
expression of active caspase-1 [1]: inhibited
enteritis inhibitory activity (ratio of enteric weight to enteric length, wt/cm) ([2]; 10 mg/kg oral, compared to DSS control): superior enteritis inhibitory activity
melena ([2]; compared to the DSS-induced group, oral): significantly decreased
